Source: patent publication US12319672B2, “Alpha-D-galactopyranoside derivatives” (Idorsia Pharmaceuticals Ltd, priority 2019, dated 2025)

Experiments:
[1] = molecular target: human Gal-3 (hGal-3) (Homo sapiens (Human), UniProt P17931); assay: Competitive binding assay: binding of biotinylated hGal-3 to microplate-adsorbed asialofetuin (ASF); conditions: Activity on hGal-3; mean values of several measurements
Procedure, shortened: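 Compounds in DMSO dilution series competed with 300-1000 ng/mL biotinylated hGal-3 for asialofetuin adsorbed on the plate (3 h, 4° C). Streptavidin-peroxidase at 80 ng/mL (1 h, 4° C) with ABTS gave a spectrophotometric read-out, and IC50 was reported as the mean of repeat runs.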

[2] = molecular target: human Gal-1 (hGal-1); assay: Competitive binding assay: binding of biotinylated hGal-1 to microplate-adsorbed asialofetuin (ASF); conditions: Activities on hGal-1; mean values of several measurements
Procedure, shortened: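 Spectrophotometric readout (streptavidin-peroxidase, ABTS) of biotinylated galectin retained on ASF-coated wells. Biotinylated hGal-1 or hGal-3, 300-1000 ng/mL, co-incubated with test compound 3 h at 4° C, then washed. Mean IC50 from repeat runs.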

Chain of human Gal-1 (hGal-1) (P09382 2-135 limits assumed): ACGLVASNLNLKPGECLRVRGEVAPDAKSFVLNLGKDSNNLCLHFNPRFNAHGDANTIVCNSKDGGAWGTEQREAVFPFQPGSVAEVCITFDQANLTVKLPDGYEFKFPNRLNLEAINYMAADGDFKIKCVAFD
Chain of human Gal-3 (hGal-3) (P17931 whole entry): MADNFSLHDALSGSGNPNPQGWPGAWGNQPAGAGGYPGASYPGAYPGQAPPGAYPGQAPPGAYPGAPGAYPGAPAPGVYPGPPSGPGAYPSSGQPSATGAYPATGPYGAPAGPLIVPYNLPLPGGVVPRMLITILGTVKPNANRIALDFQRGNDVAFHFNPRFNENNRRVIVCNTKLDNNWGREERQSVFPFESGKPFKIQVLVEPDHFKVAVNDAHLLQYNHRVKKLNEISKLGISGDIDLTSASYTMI

Structure (SMILES) | IC50 [1] [nM] | IC50 [2] [nM]
CO[C@@H]1[C@@H](n2cc(-c3cc(F)c(F)c(F)c3)nn2)[C@@H](O)[C@@H](CO)O[C@@H]1Cc1cc(C2(O)CCCC2)no1 [Ex 1.312] | 140 | 4240
CO[C@@H]1[C@@H](n2cc(-c3cc(F)c(F)c(F)c3)nn2)[C@@H](O)[C@@H](CO)O[C@@H]1Cc1cc(C2(CC#N)CC2)no1 [Ex 1.313] | 130 | 2940
COCC(C)(C)c1cc(C[C@H]2O[C@H](CO)[C@H](O)[C@H](n3cc(-c4cc(F)c(F)c(F)c4)nn3)[C@H]2OC)on1 [Ex 1.314] | 130 | 1380
CO[C@@H]1[C@@H](n2cc(-c3cc(F)c(F)c(F)c3)nn2)[C@@H](O)[C@@H](CO)O[C@@H]1Cc1cc(C(C)(C)CNC(=O)OC(C)(C)C)no1 [Ex 1.315] | 270 | 2210
CO[C@@H]1[C@@H](n2cc(-c3cc(F)c(F)c(F)c3)nn2)[C@@H](O)[C@@H](CO)O[C@@H]1Cc1cc(C(C)(C)CN)no1 [Ex 1.316] | 190 | 2200
CO[C@@H]1[C@@H](n2cc(-c3ccc(C)c(F)c3F)nn2)[C@@H](O)[C@@H](CO)O[C@@H]1Cc1cc(C(O)(c2ccccn2)C2CC2)on1 (some centres unmarked) [Ex 1.317] | 310 | 9690
CO[C@@H]1[C@@H](n2cc(-c3ccc(C)c(F)c3F)nn2)[C@@H](O)[C@@H](CO)O[C@@H]1Cc1cc(C(C)(O)c2ccccc2)on1 (some centres unmarked) [Ex 1.318] | 160 | 8870
CO[C@@H]1[C@@H](n2cc(-c3ccc(C)c(F)c3F)nn2)[C@@H](O)[C@@H](CO)O[C@@H]1Cc1cc(C2(O)CC2)on1 [Ex 1.319] | 140 | 7160
CO[C@@H]1[C@@H](n2cc(-c3ccc(C)c(F)c3F)nn2)[C@@H](O)[C@@H](CO)O[C@@H]1Cc1cc(C2(C)COC2)on1 [Ex 1.320] | 75 | 2620
CO[C@@H]1[C@@H](n2cc(-c3ccc(C)c(F)c3F)nn2)[C@@H](O)[C@@H](CO)O[C@@H]1Cc1cc(C(C)(O)c2ccccc2F)on1 (some centres unmarked) [Ex 1.321] | 400 | 9170
CO[C@@H]1[C@@H](n2cc(-c3ccc(C)c(F)c3F)nn2)[C@@H](O)[C@@H](CO)O[C@@H]1Cc1cc(C2(Oc3cncc(Br)c3)COC2)on1 [Ex 1.322] | 310 | > 100000
CCC(O)(CC)c1cc(C[C@H]2O[C@H](CO)[C@H](O)[C@H](n3cc(-c4ccc(C)c(F)c4F)nn3)[C@H]2OC)no1 [Ex 1.323] | 620 | 5080
CO[C@@H]1[C@@H](n2cc(-c3ccc(C)c(F)c3F)nn2)[C@@H](O)[C@@H](CO)O[C@@H]1Cc1cc(C2(CO)CC2)on1 [Ex 1.324] | 140 | 3570
CCOC(=O)N1CCC(C)(c2cc(C[C@H]3O[C@H](CO)[C@H](O)[C@H](n4cc(-c5ccc(C)c(F)c5F)nn4)[C@H]3OC)on2)CC1 [Ex 1.325] | 17 | 600
CO[C@@H]1[C@@H](n2cc(-c3ccc(C)c(F)c3F)nn2)[C@@H](O)[C@@H](CO)O[C@@H]1Cc1cc(C2(O)CCCC2)no1 [Ex 1.326] | 57 | 2870
CCOC(C)(C)c1cc(C[C@H]2O[C@H](CO)[C@H](O)[C@H](n3cc(-c4ccc(C)c(F)c4F)nn3)[C@H]2OC)on1 [Ex 1.327] | 76 | 4170
COc1ccc(-c2cn([C@H]3[C@@H](O)[C@@H](CO)O[C@H](CC4CC(C5CCN(C(=O)OC(C)(C)C)CC5)=NO4)[C@@H]3OC)nn2)c(F)c1F (some centres unmarked) [Ex 1.328] | 77 | 960
CO[C@@H]1[C@@H](n2cc(-c3cccc(F)c3F)nn2)[C@@H](O)[C@@H](CO)O[C@@H]1CC1CC(C2CCN(C(=O)OC(C)(C)C)CC2)=NO1 (some centres unmarked) [Ex 1.329] | 69 | 440
COCC(C)(C)c1cc(C[C@H]2O[C@H](CO)[C@H](O)[C@H](n3cc(-c4ccc(C)c(F)c4F)nn3)[C@H]2OC)on1 [Ex 1.330] | 61 | 4360
CO[C@@H]1[C@@H](n2cc(-c3ccc(C)c(F)c3F)nn2)[C@@H](O)[C@@H](CO)O[C@@H]1Cc1cc(C(C)(C)CNC(=O)OC(C)(C)C)no1 [Ex 1.331] | 58 | 1990
CO[C@@H]1[C@@H](n2cc(-c3ccc(C)c(F)c3F)nn2)[C@@H](O)[C@@H](CO)O[C@@H]1Cc1cc(C2(CC#N)CC2)no1 [Ex 1.332] | 43 | 980
Cc1ccc(-c2cn([C@H]3[C@@H](O)[C@@H](CO)O[C@H](Cc4cc(C5(C)CC5)no4)[C@@H]3O)nn2)c(F)c1F [Ex 1.333] | 10 | 6990

Structure (SMILES) | IC50 [1] [nM] | IC50 [2] [nM]
Cc1ccc(-c2cn([C@H]3[C@@H](O)[C@@H](CO)O[C@H](Cc4cc(C(C)(C)CO)no4)[C@@H]3O)nn2)c(F)c1F [Ex 1.334] | 24 | 3310
Cc1ccc(-c2cn([C@H]3[C@@H](O)[C@@H](CO)O[C@H](Cc4cc(C5(C)COC5)no4)[C@@H]3O)nn2)c(F)c1F [Ex 1.335] | 26 | 3780
CO[C@@H]1[C@@H](n2cc(-c3ccc(C)c(F)c3F)nn2)[C@@H](O)[C@@H](CO)O[C@@H]1Cc1cc(C(C)(C)CN)no1 [Ex 1.336] | 23 | 1880
CO[C@@H]1[C@@H](n2cc(-c3cc(F)c(F)c(F)c3)nn2)[C@@H](O)[C@@H](CO)O[C@@H]1Cc1cc(C2CCNC(=O)CC2)no1 (some centres unmarked) [Ex 1.337] | 55 | 420
CO[C@@H]1[C@@H](n2cc(-c3ccc(C#N)c(F)c3F)nn2)[C@@H](O)[C@@H](CO)O[C@@H]1Cc1cc(C(C)(C)C)no1 [Ex 1.338] | 150 | 1980
CO[C@@H]1[C@@H](n2cc(-c3ccc(C)c(F)c3F)nn2)[C@@H](O)[C@@H](CO)O[C@@H]1Cc1cc(C(C)(O)c2ccccc2)on1 (some centres unmarked) [Ex 1.339] | 280 | 10000
CO[C@@H]1[C@@H](n2cc(-c3ccc(C)c(F)c3F)nn2)[C@@H](O)[C@@H](CO)O[C@@H]1Cc1cc(C(C)(O)c2ccccc2)on1 (some centres unmarked) [Ex 1.340] | 330 | 10400
CO[C@@H]1[C@@H](n2cc(-c3ccc(C)c(F)c3F)nn2)[C@@H](O)[C@@H](CO)O[C@@H]1Cc1cc(C(C)c2ccccc2)no1 (some centres unmarked) [Ex 1.342] | 550 | 33000
CO[C@@H]1[C@@H](n2cc(-c3ccc(C)c(F)c3F)nn2)[C@@H](O)[C@@H](CO)O[C@@H]1Cc1cc([C@@H]2CC[C@H]2O)on1 [Ex 1.343] | 93 | 9190
CC(=O)O[C@@H]1[C@@H](n2cc(-c3ccc(C)c(F)c3F)nn2)[C@@H](O)[C@@H](CO)O[C@@H]1Cc1cc([C@@H]2CCC[C@H]2O)on1 [Ex 1.344] | 40 | 17000
CO[C@@H]1[C@@H](n2cc(-c3ccc(C)c(F)c3F)nn2)[C@@H](O)[C@@H](CO)O[C@@H]1Cc1cc(C2CCC(=O)N(C)CC2)no1 (some centres unmarked) [Ex 1.345] | 44 | 720
CO[C@@H]1[C@@H](n2cc(-c3ccc(C)c(F)c3F)nn2)[C@@H](O)[C@@H](CO)O[C@@H]1Cc1cc(C2CCC2O)on1 (some centres unmarked) [Ex 1.346] | 100 | 11700
CO[C@@H]1[C@@H](n2cc(-c3ccc(C)c(F)c3F)nn2)[C@@H](O)[C@@H](CO)O[C@@H]1Cc1cc(C2CCC2O)on1 (some centres unmarked) [Ex 1.347] | 110 | 8210
CO[C@@H]1[C@@H](n2cc(-c3ccc(C)c(F)c3F)nn2)[C@@H](O)[C@@H](CO)O[C@@H]1Cc1cc(C2CCNC(=O)CC2)no1 (some centres unmarked) [Ex 1.348] | 68 | 250
CO[C@@H]1[C@@H](n2cc(-c3ccc(C)c(F)c3F)nn2)[C@@H](O)[C@@H](CO)O[C@@H]1Cc1cc([C@H]2C[C@H]2O)on1 [Ex 1.349] | 180 | 7020
CO[C@@H]1[C@@H](n2cc(-c3ccc(C)c(F)c3F)nn2)[C@@H](O)[C@@H](CO)O[C@@H]1Cc1cc([C@@H]2C[C@H]2O)on1 [Ex 1.350] | 270 | 6780
CO[C@@H]1[C@@H](n2cc(-c3cccc(F)c3F)nn2)[C@@H](O)[C@@H](CO)O[C@@H]1Cc1cc(C(C)(C)C)on1 [Ex 1.351] | 180 | 1050
COc1ccc(-c2cn([C@H]3[C@@H](O)[C@@H](CO)O[C@H](Cc4cc(C(C)(C)C)on4)[C@@H]3OC)nn2)c(F)c1F [Ex 1.352] | 100 | 1170
COc1ccc(-c2cc(C[C@H]3O[C@H](CO)[C@H](O)[C@H](n4cc(-c5cc(F)c(F)c(F)c5)nn4)[C@H]3O)on2)cc1 [Example 2.01, (2R,3R,4R,5R,6R)-2-(hydroxymethyl)-6-((3-(4-methoxyphenyl)isoxazol-5-yl)methyl)-4-(4-(3,4,5-trifluorophenyl)-1H-1,2,3-triazol-1-yl)tetrahydro-2H-pyran-3,5-diol] | 840 | 8360
O=c1cc(C2=NO[C@@H](C[C@H]3O[C@H](CO)[C@H](O)[C@H](n4cc(-c5cc(F)c(F)c(F)c5)nn4)[C@H]3O)C2)cc[nH]1 [Example 2.04, 4-((R)-5-(((2R,3R,4R,5R,6R)-3,5-dihydroxy-6-(hydroxymethyl)-4-(4-(3,4,5-trifluorophenyl)-1H-1,2,3-triazol-1-yl)tetrahydro-2H-pyran-2-yl)methyl)-4,5-dihydroisoxazol-3-yl)pyridin-2(1H)-one] | 910 | 12300
O=c1cc(C2=NO[C@H](C[C@H]3O[C@H](CO)[C@H](O)[C@H](n4cc(-c5cc(F)c(F)c(F)c5)nn4)[C@H]3O)C2)cc[nH]1 [Example 2.05, 4-((S)-5-(((2R,3R,4R,5R,6R)-3,5-dihydroxy-6-(hydroxymethyl)-4-(4-(3,4,5-trifluorophenyl)-1H-1,2,3-triazol-1-yl)tetrahydro-2H-pyran-2-yl)methyl)-4,5-dihydroisoxazol-3-yl)pyridin-2(1H)-one] | 190 | 390
